Experimental data taken from ChEMBL document CHEMBL5678818, “Discovery of potent SOS1 inhibitors that block RAS activation via disruption of the RAS-SOS1 interaction” (Proc Natl Acad Sci U S A, 2019).

Legend:
[1] = molecular target: T1, Protein kinase C iota type (Homo sapiens) (UniProt P41743); experiment: Inhibition of PRKCI (unknown origin) assessed as residual activity at 1000 nM by KINOMEscan analysis relative to control
T1 sequence (whole entry): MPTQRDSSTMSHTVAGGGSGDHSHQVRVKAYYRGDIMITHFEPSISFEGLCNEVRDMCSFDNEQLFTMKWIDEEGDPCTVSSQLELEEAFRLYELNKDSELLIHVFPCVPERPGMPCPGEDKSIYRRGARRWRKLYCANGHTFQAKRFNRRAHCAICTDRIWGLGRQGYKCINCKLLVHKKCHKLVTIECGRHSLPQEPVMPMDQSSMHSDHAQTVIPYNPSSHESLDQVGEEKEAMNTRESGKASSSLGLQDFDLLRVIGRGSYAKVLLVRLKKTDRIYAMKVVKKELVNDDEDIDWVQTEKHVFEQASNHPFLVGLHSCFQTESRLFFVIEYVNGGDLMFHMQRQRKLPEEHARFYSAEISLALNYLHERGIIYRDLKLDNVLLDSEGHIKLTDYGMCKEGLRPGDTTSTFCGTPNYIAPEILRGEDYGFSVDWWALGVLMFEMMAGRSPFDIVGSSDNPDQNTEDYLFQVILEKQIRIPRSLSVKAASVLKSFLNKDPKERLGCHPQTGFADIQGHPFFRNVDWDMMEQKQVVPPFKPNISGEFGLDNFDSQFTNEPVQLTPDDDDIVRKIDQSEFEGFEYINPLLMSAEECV

[2] = molecular target: Mitogen-activated protein kinase kinase kinase 1 (Homo sapiens) (UniProt Q13233); experiment: Inhibition of MAP3K1 (unknown origin) assessed as residual activity at 1000 nM by KINOMEscan analysis relative to control
Mitogen-activated protein kinase kinase kinase 1 (Homo sapiens), sequence (Q13233 whole entry): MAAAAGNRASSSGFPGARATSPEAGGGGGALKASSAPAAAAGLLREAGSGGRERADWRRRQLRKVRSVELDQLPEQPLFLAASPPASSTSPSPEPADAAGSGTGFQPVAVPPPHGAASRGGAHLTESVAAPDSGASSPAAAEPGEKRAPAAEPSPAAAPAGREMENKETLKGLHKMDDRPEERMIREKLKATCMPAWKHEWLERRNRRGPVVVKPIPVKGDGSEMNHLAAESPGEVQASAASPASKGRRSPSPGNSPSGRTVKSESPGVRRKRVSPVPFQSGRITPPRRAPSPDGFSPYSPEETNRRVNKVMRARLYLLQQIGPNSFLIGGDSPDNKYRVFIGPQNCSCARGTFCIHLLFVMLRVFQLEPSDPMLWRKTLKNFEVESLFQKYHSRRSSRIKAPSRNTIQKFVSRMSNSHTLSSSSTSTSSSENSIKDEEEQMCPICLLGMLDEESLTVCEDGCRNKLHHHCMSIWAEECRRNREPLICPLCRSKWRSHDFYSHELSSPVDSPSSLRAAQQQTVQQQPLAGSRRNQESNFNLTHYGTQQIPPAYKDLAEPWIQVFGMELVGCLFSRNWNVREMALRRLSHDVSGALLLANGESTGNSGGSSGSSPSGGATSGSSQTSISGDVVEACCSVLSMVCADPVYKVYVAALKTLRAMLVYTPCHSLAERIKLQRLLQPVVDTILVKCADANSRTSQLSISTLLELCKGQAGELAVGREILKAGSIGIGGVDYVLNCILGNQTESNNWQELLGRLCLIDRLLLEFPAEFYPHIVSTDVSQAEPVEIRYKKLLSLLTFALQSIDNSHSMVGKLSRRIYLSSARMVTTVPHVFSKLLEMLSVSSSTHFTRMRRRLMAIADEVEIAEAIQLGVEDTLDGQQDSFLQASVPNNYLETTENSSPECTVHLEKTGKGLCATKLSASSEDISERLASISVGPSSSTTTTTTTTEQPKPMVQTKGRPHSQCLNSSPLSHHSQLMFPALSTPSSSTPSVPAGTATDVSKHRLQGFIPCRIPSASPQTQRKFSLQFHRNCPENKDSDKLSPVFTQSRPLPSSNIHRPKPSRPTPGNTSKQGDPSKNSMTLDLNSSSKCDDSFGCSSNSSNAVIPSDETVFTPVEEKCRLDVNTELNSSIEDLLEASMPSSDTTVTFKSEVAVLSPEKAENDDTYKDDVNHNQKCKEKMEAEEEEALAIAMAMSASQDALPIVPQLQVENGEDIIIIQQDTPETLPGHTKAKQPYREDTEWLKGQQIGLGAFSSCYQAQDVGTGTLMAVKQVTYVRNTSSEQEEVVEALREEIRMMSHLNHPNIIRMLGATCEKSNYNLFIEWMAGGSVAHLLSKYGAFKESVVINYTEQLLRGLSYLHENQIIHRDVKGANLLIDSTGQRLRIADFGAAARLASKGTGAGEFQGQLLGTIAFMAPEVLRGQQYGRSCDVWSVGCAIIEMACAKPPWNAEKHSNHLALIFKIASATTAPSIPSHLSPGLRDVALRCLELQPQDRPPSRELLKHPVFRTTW

[3] = molecular target: T2, Serine/threonine-protein kinase Nek3 (Homo sapiens) (UniProt P51956); experiment: Inhibition of NEK3 (unknown origin) assessed as residual activity at 1000 nM by KINOMEscan analysis relative to control
T2 sequence (whole entry): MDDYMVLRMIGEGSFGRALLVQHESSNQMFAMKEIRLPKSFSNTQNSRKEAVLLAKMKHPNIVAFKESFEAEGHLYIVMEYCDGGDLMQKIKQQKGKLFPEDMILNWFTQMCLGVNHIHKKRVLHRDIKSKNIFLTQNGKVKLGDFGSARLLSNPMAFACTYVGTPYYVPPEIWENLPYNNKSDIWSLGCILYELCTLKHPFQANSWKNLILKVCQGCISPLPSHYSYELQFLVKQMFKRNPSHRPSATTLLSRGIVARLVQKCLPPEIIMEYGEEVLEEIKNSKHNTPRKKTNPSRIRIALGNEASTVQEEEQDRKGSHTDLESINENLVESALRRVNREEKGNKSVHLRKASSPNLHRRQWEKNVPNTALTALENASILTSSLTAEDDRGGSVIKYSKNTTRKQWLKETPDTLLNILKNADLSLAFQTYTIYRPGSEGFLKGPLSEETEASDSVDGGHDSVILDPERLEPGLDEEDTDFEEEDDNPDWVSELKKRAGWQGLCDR

[4] = tested on: Tyrosine-protein kinase ABL1 (Homo sapiens), P00519 [T315I]; experiment: Inhibition of phosphorylated ABL1 T315I mutant (unknown origin) assessed as residual activity at 1000 nM by KINOMEscan analysis relative to control
[5] = molecular target: T3, Serine/threonine-protein kinase TAO2 (Homo sapiens) (UniProt Q9UL54); experiment: Inhibition of TAOK2 (unknown origin) assessed as residual activity at 1000 nM by KINOMEscan analysis relative to control
T3 sequence (whole entry): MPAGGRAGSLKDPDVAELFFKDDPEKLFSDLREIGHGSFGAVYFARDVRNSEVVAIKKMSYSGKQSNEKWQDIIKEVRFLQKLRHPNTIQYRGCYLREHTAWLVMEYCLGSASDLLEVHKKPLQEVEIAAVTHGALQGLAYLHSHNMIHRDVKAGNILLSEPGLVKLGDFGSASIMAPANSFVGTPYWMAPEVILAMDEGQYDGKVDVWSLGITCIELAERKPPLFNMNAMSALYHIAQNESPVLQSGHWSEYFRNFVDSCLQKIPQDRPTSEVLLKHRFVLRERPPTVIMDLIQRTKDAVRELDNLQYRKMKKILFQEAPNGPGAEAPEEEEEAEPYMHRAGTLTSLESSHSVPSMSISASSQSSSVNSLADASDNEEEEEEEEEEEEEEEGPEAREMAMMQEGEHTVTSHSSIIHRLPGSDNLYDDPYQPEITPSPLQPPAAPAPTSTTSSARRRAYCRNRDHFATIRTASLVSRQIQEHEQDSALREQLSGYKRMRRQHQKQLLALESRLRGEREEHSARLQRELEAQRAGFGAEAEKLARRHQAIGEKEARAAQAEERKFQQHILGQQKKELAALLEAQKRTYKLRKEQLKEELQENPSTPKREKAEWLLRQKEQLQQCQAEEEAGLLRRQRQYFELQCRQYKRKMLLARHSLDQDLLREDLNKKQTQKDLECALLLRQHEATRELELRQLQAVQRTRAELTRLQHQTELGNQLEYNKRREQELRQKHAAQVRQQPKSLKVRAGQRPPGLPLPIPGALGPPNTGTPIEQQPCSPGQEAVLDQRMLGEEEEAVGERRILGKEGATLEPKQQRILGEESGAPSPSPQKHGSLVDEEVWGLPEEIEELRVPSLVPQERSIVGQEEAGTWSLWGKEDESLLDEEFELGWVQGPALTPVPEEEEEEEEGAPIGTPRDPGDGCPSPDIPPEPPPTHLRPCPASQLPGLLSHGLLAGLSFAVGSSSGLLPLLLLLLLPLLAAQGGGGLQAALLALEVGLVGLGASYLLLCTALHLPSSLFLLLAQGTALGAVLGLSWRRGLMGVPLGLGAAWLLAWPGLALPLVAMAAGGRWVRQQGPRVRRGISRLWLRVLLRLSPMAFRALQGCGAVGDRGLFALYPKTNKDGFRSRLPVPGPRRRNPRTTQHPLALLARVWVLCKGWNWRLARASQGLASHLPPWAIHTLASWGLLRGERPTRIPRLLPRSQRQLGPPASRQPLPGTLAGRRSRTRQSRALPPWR

[6] = molecular target: Cyclin-dependent kinase 16 (Homo sapiens) (UniProt Q00536); experiment: Inhibition of PCTK1 (unknown origin) assessed as residual activity at 1000 nM by KINOMEscan analysis relative to control
Cyclin-dependent kinase 16 (Homo sapiens), sequence (Q00536 whole entry): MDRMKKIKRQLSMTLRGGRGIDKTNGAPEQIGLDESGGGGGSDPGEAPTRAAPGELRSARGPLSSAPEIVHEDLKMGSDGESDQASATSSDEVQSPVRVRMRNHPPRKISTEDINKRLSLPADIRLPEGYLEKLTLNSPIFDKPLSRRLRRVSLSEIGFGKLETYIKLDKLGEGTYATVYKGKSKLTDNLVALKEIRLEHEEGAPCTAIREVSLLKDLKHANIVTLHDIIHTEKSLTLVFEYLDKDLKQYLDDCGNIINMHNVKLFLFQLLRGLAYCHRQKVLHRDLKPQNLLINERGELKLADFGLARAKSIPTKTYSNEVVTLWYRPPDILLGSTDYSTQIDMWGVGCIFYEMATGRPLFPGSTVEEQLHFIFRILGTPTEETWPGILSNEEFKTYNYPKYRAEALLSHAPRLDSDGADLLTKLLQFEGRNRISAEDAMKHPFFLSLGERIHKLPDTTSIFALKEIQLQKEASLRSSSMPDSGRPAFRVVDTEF

COc1cc2nc(C)nc(N[C@H](C)c3cccc(-c4cn[nH]c4)c3)c2cc1OC
Activity [1]: 61% | Activity [2]: 77% | Activity [3]: 42% | Activity [4]: 99% | Activity [5]: 78% | Activity [6]: 95%

COc1cc2ncnc(N[C@H](C)c3cccc4ccccc34)c2cc1OC
Activity [1]: 100% | Activity [2]: 100% | Activity [3]: 93% | Activity [4]: 96% | Activity [5]: 90% | Activity [6]: 88%
